Reference: US20120035206A1, “PREPARATION AND APPLICATION OF NOVEL ANTIBACTERIAL AND ANTICANCER COMPOUNDS AND THEIR DERIVATIVES” (priority 2009, published 2012)
Values after ≈ are worked out from the molar mass of the structure shown.

How the values were obtained:
Type in all cases: cell-based
[1] = tested on: C. Krusei; assay: In vitro antibacterial (antifungal) test, two-fold dilution MIC; details: Pichia kudriavzevii, RPMI 1640, culture 2-7 days
Description: (§1) In vitro antibacterial experiments of 25 compounds as anti-bacterial and anti-cancer compounds in the patent were tested using 14 kinds of bacteria. Tested bacteria: C. albicans, C. tropicalis, C. neoformans, E. floccosum, M. gypseum, A. niger, S. schenekn, C. parapsilosis, C. glabrata, C. Krusei, Trichoderma, Gibberella, Setrosphaeria turcica, Fusarium Oxysporum Vasinfectum. (Bacteria were from the Dermatology Hospital of Chinese Academy of Medical Sciences, Nanjing, China.)
(§2) The Preparation of tested Bacteria solution was following: incubated Bacteria were added to 5 ml physiological saline, and then they were mashed and placed with ultrasound. The solution was fully mixed, and insoluble substances were removed. The treated solution was called the original bacterium solution. In the test, the bacteria concentration in the original bacterium solution was adjusted to […].
(§3) Tested Methods: the tested compounds were dissolved in dimethyl sulfoxide. and the solution was diluted with sterile distilled water. And the distilled solution was added to sterilized RPMI 1640 medium. The concentration of the compounds were adjusted to 256, 128, 64, 32, 16, 8, 4, 2, 1, 0.5, 0.25, 0.125 ug*ml-1. Then the adjusted solutions were inoculated with tested bacteria, and the tested systems were placed in the constant temperature oven to culture for 2-7 days. The concentration at which there was no growing of fungi was taken as the minimum inhibitory concentration (MIC).

[2] = tested on: C. albicans; assay: as above; details: Candida albicans, read-out: MIC C. albicas
Description: as §1, §2, §3

[3] = tested on: C. glabrata; assay: as above; details: Nakaseomyces glabratus, RPMI 1640, culture 2-7 days
Description: as §1, §2, §3

[4] = tested on: C. neoformans; assay: as above; details: Cryptococcus neoformans, RPMI 1640, culture 2-7 days
Description: as §1, §2, §3

[5] = tested on: C. parapsilosis; assay: as above; details: Lodderomyces parapsilosis, RPMI 1640, culture 2-7 days
Description: as §1, §2, §3

[6] = tested on: C. tropicalis; assay: as above; details: Candida tropicalis, RPMI 1640, culture 2-7 days
Description: as §1, §2, §3

[7] = tested on: E. floccosum; assay: as above; details: Epidermophyton floccosum, RPMI 1640, culture 2-7 days
Description: as §1, §2, §3

[8] = tested on: Fusarium oxysporum vasinfectum; assay: as above; details: RPMI 1640, culture 2-7 days
Description: as §1, §2, §3

[9] = tested on: M. gypseum; assay: as above; details: Nannizzia gypsea, RPMI 1640, culture 2-7 days
Description: as §1, §2, §3

[10] = tested on: S. schenekn; assay: as above; details: RPMI 1640, culture 2-7 days
Description: as §1, §2, §3

[11] = tested on: Setosphaeria turcica; assay: as above; details: Exserohilum turcicum, RPMI 1640, culture 2-7 days
Description: as §1, §2, §3

[12] = tested on: Terchoderma; assay: as above; details: Trichoderma, RPMI 1640, culture 2-7 days
Description: as §1, §2, §3

[13] = tested on: A375; assay: In vitro anticancer MTT experiment; details: Homo sapiens, A-375, concentration 5 ug/ml, 48 h or 72 h, read-out: inhibition ratio A375
Description: (§4) In vitro anticancer experiments of 25 compounds as anti-bacterial and anti-cancer compounds in the patent were tested. In the test, 14 kinds of cancer cells were used as tested cancer cells. And the results obtained by MTT method were shown in table 2 (the inhibition ratio was obtained when the concentration was 5 ug/ml). Tested Cancer Cells: SGC7901, HTB-38HT-29, CRL-2233NU-398, CRL-1469PANC-1, B0192, HTB-131MDA-453, CRL-1435PC-3, FTC133, AS24391, HTB-95637. (Cancer cells were from Chinese Military Academy of Medical Sciences). Cells Culture: Culture solution was composed of RPMI 1640 medium, 10% (VAT) Fetal calf serum and 0.01% L-glutamine. Cultured cells were maintained at 37° C. in an incubator with 5% CO2. The cells at logarithmic growth phase were used in the experiment. MTT Experiment: Single cell suspension was obtained by digesting cells with 0.25% trypsin. The cells at logarithmic growth phase were collected and seeded in a 96-well plate at a concentration of 6000-7000 cells per well. After culturing for 12 h at 37° C. in the incubator with 5% CO2, the cells were again incubated with the tested compounds of various concentrations for 48 h or 72 h. Pure cultures and cells without drug were taken as blank reference and negative reference, and 8 Wells of each group were taken. Twenty microliter of MTT (5 mg/mL) was added to each well, and the mixed solutions were incubation for 4 h. The formazan product was dissolved by dimethyl sulfoxide (DMSO, 150 μL), and the optical density (O.D.) was read at 570 nm. The Inhibition Ratio was calculated by the following formula: Inhibition Ratio=(Anegative control−Asample)/(Anegative control−Ablank control)

[14] = tested on: AS24391; assay: In vitro anticancer MTT experiment; details: concentration 5 ug/ml, 48 h or 72 h, read-out: inhibition ratio AS24391
Description: as §4

[15] = tested on: B01092; assay: In vitro anticancer MTT experiment; details: concentration 5 ug/ml, 48 h or 72 h, read-out: inhibition ratio B01092
Description: as §4

[16] = tested on: CRL-1435PC-3; assay: In vitro anticancer MTT experiment; details: concentration 5 ug/ml, 48 h or 72 h, read-out: inhibition ratio CRL-1435PC-3
Description: as §4

[17] = tested on: CRL-1469PANC-1; assay: In vitro anticancer MTT experiment; details: concentration 5 ug/ml, 48 h or 72 h, read-out: inhibition ratio CRL-1469PANC-1
Description: as §4

[18] = tested on: CRL-2233SNU-398; assay: In vitro anticancer MTT experiment; details: concentration 5 ug/ml, 48 h or 72 h, read-out: inhibition ratio CRL-2233SNU-398
Description: as §4

[19] = tested on: FTC 133; assay: In vitro anticancer MTT experiment; details: Homo sapiens, concentration 5 ug/ml, 48 h or 72 h, read-out: inhibition ratio FTC 133
Description: as §4

[20] = tested on: HTB-131MDA-MB-453; assay: In vitro anticancer MTT experiment; details: concentration 5 ug/ml, 48 h or 72 h, read-out: inhibition ratio HTB-131MDA-MB-453
Description: as §4

[21] = tested on: HTB-38HT-29; assay: In vitro anticancer MTT experiment; details: concentration 5 ug/ml, 48 h or 72 h, read-out: inhibition ratio HTB-38HT-29
Description: as §4

[22] = tested on: HTB-94; assay: In vitro anticancer MTT experiment; details: concentration 5 ug/ml, 48 h or 72 h, read-out: inhibition ratio HTB-94
Description: as §4

[23] = tested on: HTB-95637; assay: In vitro anticancer MTT experiment; details: concentration 5 ug/ml, 48 h or 72 h, read-out: inhibition ratio HTB-95637
Description: as §4

[24] = tested on: L1210; assay: In vitro anticancer MTT experiment; details: Mus musculus, concentration 5 ug/ml, 48 h or 72 h, read-out: inhibition ratio L1210
Description: as §4

[25] = tested on: L428; assay: In vitro anticancer MTT experiment; details: Homo sapiens, L-428, concentration 5 ug/ml, 48 h or 72 h, read-out: inhibition ratio L428
Description: as §4

[26] = tested on: SGC7901; assay: In vitro anticancer MTT experiment; details: Homo sapiens, SGC-7901, concentration 5 ug/ml, 48 h or 72 h, read-out: inhibition ratio SGC7901
Description: as §4

Structure (SMILES) | MIC [2] [µg/mL] | MIC [3] [µg/mL] | MIC [4] [µg/mL] | MIC [5] [µg/mL] | MIC [6] [µg/mL] | MIC [7] [µg/mL] | MIC [8] [µg/mL] | MIC [9] [µg/mL] | MIC [10] [µg/mL] | MIC [12] [µg/mL] | inhibition at 5 µg/mL [14] [%] | inhibition at 5 µg/mL [15] [%] | inhibition at 5 µg/mL [16] [%] | inhibition at 5 µg/mL [17] [%] | inhibition at 5 µg/mL [18] [%] | inhibition at 5 µg/mL [20] [%] | inhibition at 5 µg/mL [21] [%] | inhibition at 5 µg/mL [22] [%] | inhibition at 5 µg/mL [23] [%] | inhibition at 5 µg/mL [24] [%] | other results
O=C1/C(=C/Cl)CSc2ccc(Cl)cc21 [Compound 4, (Z)-6-chloro-3-(chloromethylene)thiochroman-4-one] | 4 (≈ 16.3 µM) | 16 (≈ 65.3 µM) | 4 (≈ 16.3 µM) | 2 (≈ 8.16 µM) | 8 (≈ 32.6 µM) | 2 (≈ 8.16 µM) | 32 (≈ 131 µM) | 16 (≈ 65.3 µM) | 4 (≈ 16.3 µM) | 16 (≈ 65.3 µM) | 46.2 | 56.7 | 54.2 | 68 | 75.5 | 57.6 | 67.3 | 68 | 52.8 | 82.3 | MIC [1]: 32 µg/mL (≈ 131 µM); MIC [11]: 8 µg/mL (≈ 32.6 µM); inhibition at 5 µg/mL [13]: 50.4%; inhibition at 5 µg/mL [19]: 46.5%; inhibition at 5 µg/mL [25]: 66.6%; inhibition at 5 µg/mL [26]: 60.8%
Cc1cc2c(cc1F)SC/C(=C\Br)C2=O [Compound 9, (Z)-3-(bromomethylene)-7-fluoro-6-methylthiochroman-4-one] | 64 (≈ 223 µM) | 64 (≈ 223 µM) | 1 (≈ 3.48 µM) | 8 (≈ 27.9 µM) | 32 (≈ 111 µM) | 32 (≈ 111 µM) | 64 (≈ 223 µM) | 64 (≈ 223 µM) | 32 (≈ 111 µM) | 64 (≈ 223 µM) | 57 | 39.4 | 36 | 60.1 | 45.6 | 56.7 | 74.6 | 65.6 | 55.8 | 89.5 | MIC [1]: 4 µg/mL (≈ 13.9 µM); MIC [11]: 32 µg/mL (≈ 111 µM); inhibition at 5 µg/mL [25]: 50.1%; inhibition at 5 µg/mL [26]: 50.4%
O=C1/C(=C/Cl)CSc2ncccc21 [Compound 18, (Z)-3-(chloromethylene)-2H-thiopyrano[2,3-b]pyridin-4(3H)-one] | 8 (≈ 37.8 µM) | 16 (≈ 75.6 µM) | 4 (≈ 18.9 µM) | 8 (≈ 37.8 µM) | 16 (≈ 75.6 µM) | 32 (≈ 151 µM) | 16 (≈ 75.6 µM) | 32 (≈ 151 µM) | 4 (≈ 18.9 µM) | 16 (≈ 75.6 µM) | 63.5 | 67.7 | 41 | 56.4 | 46.6 | 77.1 | 63.5 | 49 | 56.4 | 76.8 | MIC [1]: 32 µg/mL (≈ 151 µM); MIC [11]: 8 µg/mL (≈ 37.8 µM); inhibition at 5 µg/mL [13]: 67.8%; inhibition at 5 µg/mL [19]: 55%; inhibition at 5 µg/mL [26]: 47.5%
Cc1ccc2c(c1)C(Cl)/C(=C/Cl)CS2 (stereo not drawn) [Compound 28, (E)-4-chloro-3-(chloromethylene)-6-methylthiochroman] | 32 (≈ 131 µM) | 32 (≈ 131 µM) | 8 (≈ 32.6 µM) | 32 (≈ 131 µM) | 16 (≈ 65.3 µM) | 4 (≈ 16.3 µM) | 64 (≈ 261 µM) | 16 (≈ 65.3 µM) | 16 (≈ 65.3 µM) | 16 (≈ 65.3 µM) | 72.3 | 46.2 | 65.2 | 75.3 | 56.3 | 56.8 | 72.4 | 62.2 | 48.2 | 79.4 | inhibition at 5 µg/mL [13]: 52.7%; inhibition at 5 µg/mL [19]: 72.5%; inhibition at 5 µg/mL [25]: 66.7%; inhibition at 5 µg/mL [26]: 63.3%
